These are literature values, as cited in US20080044452A1, “DRUG DELIVERY SYSTEM FOR TREATMENT OF TRANSITIONAL CELL CARCINOMA” (priority 2006, published 2008).

On to `CO[C@@]12[C@H](COC(N)=O)C3=C(C(=O)C(C)=C(N)C3=O)N1C[C@@H]1N[C@@H]12` [Mitomycin C], for which the “stability in acidic urine” value was “not stable in acidic urine”.
